Results as given in ChEMBL document CHEMBL1208749 (2010).

tested on: 3T3-L1; assay: Glucose uptake enhancing activity in insulin-stimulated mouse 3T3L1 cells at 10 uM after 4 days by FLIPR based 2-DG uptake assay relative to control; type: functional

Structure (SMILES)	fold change (FC)
O=c1c(-c2ccc(O)cc2)coc2c(CC(O)CO)c(O)ccc12 (stereo not drawn)	1.5
O=c1cc(-c2ccc(O)cc2)oc2c([C@@H]3O[C@H](CO)[C@@H](O)[C@H](O)[C@H]3O)c(O)cc(O)c12	1.1
O=C1c2c(O)cc(O)c([C@@H]3O[C@H](CO)[C@@H](O)[C@H](O)[C@H]3O)c2OCC1c1ccc(O)cc1 (stereo partly drawn)	1.1
O=c1c(-c2ccc(O)cc2)coc2cc(O)ccc12 [DAIDZEIN]	1.5
O=c1c(-c2ccc(O)cc2)coc2c([C@@H]3O[C@H](CO)[C@@H](O)[C@H](O)[C@H]3O)c(O)ccc12 [PUERARIN]	1.5
O=c1c(-c2ccc(O)cc2)coc2cc(O[C@@H]3O[C@H](CO)[C@@H](O)[C@H](O)[C@H]3O)ccc12 [DAIDZIN]	1.15
O=c1c(-c2ccc(O)cc2)coc2cc(O)c([C@H]3O[C@@H](CO)[C@H](O)[C@@H](O)[C@@H]3O)c(O)c12	1.5
O=c1c(-c2ccc(O[C@@H]3O[C@H](CO)[C@@H](O)[C@H](O)[C@H]3O)cc2)coc2cc(O)ccc12	1.15
